These results are taken from patent publication US20070027109A1 (priority 2002, published 2007).

Several values for one entry are separate records, joined by “and”; a condition that tells them apart may be missing. Equal values may be shown once. Read-outs that look alike come from different tables or passages of the source. Where only a bound is given, the exact number is not on record here.

The test system of series [1] is HIV-1 clinical isolates, SIV and HIV-2. Conditions: all viruses of Table 8. Here is the method: The inhibition of HIV-1 ADA and BaL replication in monocyte/macrophages was also assessed.
(§1) Human immunodeficiency virus type 1 (HIV-1) strains Ba-L, ADA, SIVmac251, HIV-2 (CDC3 10319) and the subtype representative strains (Table 6) were obtained from the NIAID AIDS Research and Reference Reagent Program. The low passage pediatric isolates SLKA, WeJo and TeKi were derived in the laboratories of Southern Research Institute.

The next series relates to HIV-2 (CDC 310319). In words: PBMC assay, HIV-2. Format: cell-based.
A further series has as its system Subtype G Jv1083. In words: PBMC assay, HIV-1 subtype G. Format: cell-based.
A further series deals with MDR769. The following applies: MDR769, PBMC. Here is the method:
as §1
PBMC assays were carried out as described in Example 6.
Reverse transcriptase (RT) activity was measured in cell-free supernatants as described in Example 6.

A further series has as its system HIV-1 RoJo. In words: PBMC assay, HIV-1 RoJo replication (RT activity). Format: cell-based. The following applies: for IC50 (50% inhibition of virus replication): 6 days; for anti-viral activity against HIV-1 RoJo virus: in vitro; for IC50: RoJo, PBMC. The text has this: Human peripheral blood mononuclear cells from a minimum of two donors, that have been blasted with PHA and IL-2, were counted, viability determined by Trypan Blue dye exclusion and mixed in equal ratios. Pooled donors were used to minimize the variability observed between individual donors which results from quantitative and qualitative differences in HIV infection and overall response to the PHA and IL-2 of primary lymphocyte populations. […] Fifty microliters of cells were then distributed to the inner 60 wells of a 96 well round bottom microtiter culture plate in a standard format developed by the Infectious Disease Research department of Southern Research Institute. Each plate contains cell control wells (cells only), virus control wells (cells plus virus), and experimental wells (drug plus cells plus virus). Serially diluted compounds were added to the microtiter plate followed by the appropriate pretitered dilution of HIV-1 RoJo. All samples were assayed in triplicate with a replicate plate without virus for the determination of compound toxicity. The final volume per well was 200 μL. The assay was incubated for 6 days in a humidified atmosphere at 37° C., 5% CO2, after which supernatants were collected, for analysis of RT activity and sister plates analyzed for cell viability by MTS dye reduction. Wells were also examined microscopically and any abnormalities noted.
Reverse transcriptase (RT) activity was measured in cell-free supernatants. Tritiated thymidine triphosphate (NEN) (TTP) was resuspended in distilled H2O at 5 Ci/mL. Poly rA and oligo dT were prepared as a stock solution which was kept at −20° C. The RT reaction buffer was prepared fresh on a daily basis and consists of 125 μL 1.0 M EGTA, 125 μL dH2O, 110 μL 10% SDS, 50 μL 1.0 M Tris (pH 7.4), 50 μL 1.0 M DTT, and 40 μL 1.0 M MgCl2. These three solutions were mixed together in a ratio of two parts TTP, one part poly rA:oligo dT, and one part reaction buffer. Ten microliters of this reaction mixture were placed in a round bottom microtiter plate and 15 μL of virus containing supernatant was added and mixed. The plate was incubated at 37° C. in a water bath with a solid support to prevent submersion of the plate and incubated for 60 minutes. Following reaction, the reaction volume was spotted onto pieces of DE81 paper, washed 5 times for 5 minutes each in a 5% sodium phosphate buffer, two times for one minute each in distilled water, two times for one minute each in 70% ethanol, and then dried.
The IC50 and TC50 values were calculated by linear regression. The TI represents the ratio of the TC50/IC50, and is used to determine relative potency between compounds.

The test system of the next series is Subtype E CMU02. In words: PBMC assay, HIV-1 subtype E. Format: cell-based.
The test system of a further series is Subtype C BR/92/025. In words: PBMC assay, HIV-1 subtype C. Format: cell-based. Conditions: Subtype C BR/92/025, PBMC.
The subject of a further series is Subtype F BR/93/020. Put plainly: PBMC assay, HIV-1 subtype F. Format: cell-based. Conditions: Subtype F BR/93/020, PBMC.
For the next series, the system named is SIVmac251. In words: PBMC assay, SIVmac251. Format: cell-based, SIV.
Series [2] relates to Subtype B 302056 (91US056). In words: PBMC assay, HIV-1 subtype B. Format: cell-based.
In the next series the test system is HIV-1 Ba-L. In words: Monocyte/macrophage assay, HIV-1 Ba-L (p24 ELISA). Format: cell-based. The following applies: monocytes. The text has this:
(§2) Peripheral blood monocytes were isolated from normal HIV-1 negative donors by plastic adherence following ficoll hypaque purification of the buffy coat, as described above for PBMCs. In many cases the same donor used to produce the PBMC populations was also used to produce monocyte/macrophages, however unlike PBMC population monocyte/macrophage, donors were never pooled. Following a two hour adherence in RPMI 1640 without phenol red supplemented with 10% human pooled AB serum (heat inactivated), 2 mM L-glutamine, 100 U/mL penicillin, 100 μg/mL streptomycin, 10 μg/mL gentamycin, cultures were washed to remove non-adherent cells. […] Adherent cells were assessed for purity by nonspecific esterase staining (a-napthyl butyrate specific esterase, Sigma Chemical Co.), and/or viability by Trypan Blue dye exclusion, counted and resuspended in RPMI 1640 supplemented with 10% Fetal Bovine Serum (heat inactivated), 2 mM L-glutamine, 100 U/mL penicillin, 100 μg/mL streptomycin, 10 μg/mL gentamycin at 1×10^6 monocytes per ml. […] HIV p24 antigen content to assess virus replication was measured at assay termination by a commercially available p24 ELISA assay (Coulter) on cell-free supernatants, and compound cytotoxicity by MTS dye reduction. […]
(§3) ELISA kits were purchased from Coulter Electronics. […] Control curves were generated in each assay to accurately quantitate the amount of p24 antigen in each sample. […]
Background: An ELISA detects its analyte on a solid surface through an enzyme-linked reagent.

For the next series, the system named is Subtype D UG/92/046. In words: PBMC assay, HIV-1 subtype D. The following applies: Subtype D UG/92/046, PBMC. Format: cell-based.
A further series deals with WeJo. In words: PBMC assay, HIV-1 WeJo. Format: cell-based.
Another series concerns HIV-1 ADA. In words: Monocyte/macrophage assay, HIV-1 ADA (p24 ELISA). Format: cell-based. The following applies: monocytes.
From the text: as §2, §3

Another series deals with Subtype O BCOF-01. In words: PBMC assay, HIV-1 subtype O. Format: cell-based. Conditions: Subtype O BCOF-01, PBMC.
The subject of another series is TEKI. In words: PBMC assay, HIV-1 TEKI. Format: cell-based.
The subject of a further series is SLKA. Put plainly: PBMC assay, HIV-1 SLKA. Format: cell-based.
A further series deals with Subtype A RW/92/016. Put plainly: PBMC assay, HIV-1 subtype A. Format: cell-based. The following applies: Subtype A RW/92/016, PBMC.
The test system of the next series is monocyte/macrophages. Put plainly: MTS staining for cell viability, monocyte/macrophages. Format: cell-based, human. From the text:
Peripheral blood monocytes were isolated from normal HIV-1 negative donors by plastic adherence following ficoll hypaque purification of the buffy coat, as described above for PBMCs. In many cases the same donor used to produce the PBMC populations was also used to produce monocyte/macrophages, however unlike PBMC population monocyte/macrophage, donors were never pooled. […] The monocytes were released from the plastic by vigorous pipetting with Ca^2+ and Mg^2+ free PBS. […] The monocytes (1×10^5 per 0.2 cm well) were then cultured for six days, allowing maturation of the cells to a macrophagelike phenotype. […] Cultures were washed a final time by media removal 24 hours post infection, fresh compound added and the cultures continued for an additional six days. The assays were preformed using a standardized microtiter plate format, which uses only the inner 60 wells of a 96 well plate for assay purposes. The outer rows contain media and acts an a evaporation barrier. Each plate contains cell control wells (cells only), virus control wells (cells plus virus), and experimental wells (drug plus cells plus virus). HIV p24 antigen content to assess virus replication was measured at assay termination by a commercially available p24 ELISA assay (Coulter) on cell-free supernatants, and compound cytotoxicity by MTS dye reduction. […]

Where [3] appears, read: IC50 basis, HIV-1 RoJo, PBMCs, Example 6.

Take “sulfated dextran, 9.5% sulfur, molecular weight 30,000 [DES 9.5% Sulfation]”: the “IC50s, range over the virus panel” value in [1] is recorded as 5.1 to >100 μg/ml. For the same molecule, the IC50 was 5.1 µg/mL in the series on HIV-2 (CDC 310319), more than 100 µg/mL with Subtype G Jv1083 and 13 µg/mL in the series on MDR769. Moreover, the “fold less active than DES […] Sulfation” value in the series with HIV-1 RoJo (HIV-1 RoJo infected PBMCs, Example 7) came to 37 fold; in the series with HIV-1 RoJo (setting [3]) it was 12 fold. The “IC50 (50% inhibition of virus replication)” value in the series on HIV-1 RoJo (HIV-1 RoJo, PBMCs, Example 6) is 19.4 µg/mL. Moreover, the “fold less active than DES 17-20% Sulfation” value in the series on HIV-1 RoJo (setting [3]) is given as 39 fold. Besides, in the series on HIV-1 RoJo, the “anti-viral activity against HIV-1 RoJo virus” value (“anti-viral activity” below) was “significant anti-viral activity”.
Regarding “sulfated dextran, 12.2% sulfur, molecular weight 36,000 [DES 12.5% Sulfation]”, the IC50 entry in the series with Subtype E CMU02 was “.7 µg/mL”; in the series with Subtype G Jv1083 it was 11.7 µg/mL; in the series with Subtype C BR/92/025, 10.3 µg/mL; in the series with MDR769 it was “.7 µg/mL”; with Subtype F BR/93/020, “.3 µg/mL”; in the series with SIVmac251 it was “.6 µg/mL”. For the same molecule, the IC50 result in series [2] is “.8 µg/mL”; in the series on HIV-1 RoJo (Example 7), “.7 µg/mL”. For the same molecule, the “IC50 (50% inhibition of virus replication)” value in the series on HIV-1 RoJo (HIV-1 RoJo, PBMCs, Example 6) amounted to 1.6 µg/mL. Also, the “anti-viral activity” value in the series with HIV-1 RoJo is on record as “significant anti-viral activity”.
As for `Cc1cn([C@H]2C[C@H](N=[N+]=[N-])[C@@H](CO)O2)c(=O)[nH]c1=O` [AZT], the IC50 in the series on HIV-1 Ba-L turned out to be 4 nM; with Subtype D UG/92/046, 1 nM; in the series with WeJo, 3 nM; in the series on HIV-2 (CDC 310319) (read-out: IC50), 0.4 nM; with HIV-1 ADA, 7 nM; with Subtype G Jv1083 (read-out: IC50), 6 nM. Besides, the IC50 in the series on Subtype O BCOF-01 turned out to be 3 nM; in the series with Subtype C BR/92/025 (read-out: IC50) it was 5 nM; with TEKI, 10 nM; with SLKA, 2 nM; with Subtype A RW/92/016, 1 nM; with Subtype F BR/93/020 (read-out: IC50) it was 3 nM. The IC50 in the series with SIVmac251 (read-out: IC50) stood at 2 nM; in series [2] (read-out: IC50) it was 10 nM; in the series with HIV-1 RoJo (Example 7, read-out: IC50), 2 nM. This molecule returned a CC50 in the series with monocyte/macrophages of 1000 nM.
As to “dextran sulfate, 17-20% sulfur, molecular weight 39,700 [DES 17-20% Sulfation]”, in the series on HIV-1 RoJo (HIV-1 RoJo, PBMCs, Example 6), the “IC50 (50% inhibition of virus replication)” value was 0.5 µg/mL and 1.0 µg/mL. For the same molecule, the “anti-viral activity” value in the series with HIV-1 RoJo is “significant anti-viral activity”.

In general, IC50 refers to the point on the concentration scale where inhibition reaches its midpoint. As usually defined, the CC50 is the concentration giving 50% cytotoxicity. Low readings indicate harm at low concentration, high ones better tolerance by the cells.
